{"source": "paper PMC12394179", "about": "“Re‐engineering a transferase scaffold for indole C3 methylation in diketopiperazines” (Protein Science : A Publication of the Protein Society, 2025)", "target": "T1, SeMT (Saccharopolyspora erythraea, UniProt A4FFC0)", "T1 construct": "gene SACE_3471; codon-harmonized synthetic gene in pET28a(+), E. coli BL21(DE3), Ni-NTA purified; dimer", "T1 sequence (A4FFC0 1-266)": "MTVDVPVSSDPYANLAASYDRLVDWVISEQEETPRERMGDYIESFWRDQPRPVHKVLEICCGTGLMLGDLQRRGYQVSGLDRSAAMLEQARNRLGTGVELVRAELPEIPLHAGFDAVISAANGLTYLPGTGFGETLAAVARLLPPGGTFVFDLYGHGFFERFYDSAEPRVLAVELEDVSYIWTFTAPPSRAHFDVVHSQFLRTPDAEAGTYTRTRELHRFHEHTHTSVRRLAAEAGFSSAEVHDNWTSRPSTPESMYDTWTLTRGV", "test": "X-ray crystallography", "assay_type": "binding", "conditions": "co-crystal with 2 mM SAH, pH 5.6 reservoir; cofactor site (product of methyl transfer)"}
{"compound": "Nc1ncnc2c1ncn2[C@@H]1O[C@H](CSCC[C@H](N)C(=O)O)[C@@H](O)[C@H]1O", "note": "[SAH]", "values": [{"measurement": "X-ray crystallography", "value": "the demethylated cofactor SAH (included in the sample for crystallization) is found embraced"}]}
